{"source": "ChEMBL document CHEMBL5137022", "about": "“Antitumor Activity of Rutaecarpine in Human Colorectal Cancer Cells by Suppression of Wnt/β-Catenin Signaling” (J Nat Prod, 2022)", "key": {"[1]": {"system": "LS174T", "experiment": "Induction of cell cycle arrest in human LS174T cells assessed as accumulation of cells at sub-G1 phase at 20 uM measured at 24 hrs by RNase A/propidium iodide staining based flow cytometric analysis (reference value: 0.7 %)", "assay_type": "functional"}, "[2]": {"system": "LS174T", "experiment": "Downregulation of MMP-7 expression in human LS174T cells at up to 8 uM incubated for 24 hrs by Western blot analysis", "assay_type": "functional, cell-based"}, "[3]": {"system": "LS174T", "experiment": "Antitumor activity against human LS174T cells xenografted in BALB/c nude mouse assessed as reduction in tumor volume at 30 mg/kg, ip administered 3 times per week for 21 days by electronic caliper method", "assay_type": "functional", "design": "scale not given: the % may be the effect or the level left", "conditions": "time 21 day"}, "[4]": {"system": "LS174T", "experiment": "Induction of apoptosis in human LS174T cells assessed as total cell death at 40 uM measured after 48 hrs by AnnexinV-FITC/PI staining based flowcytometry analysis relative to control", "assay_type": "functional"}, "[5]": {"system": "LS174T", "experiment": "Induction of cell cycle arrest in human LS174T cells assessed as upregulation of p21 expression measured after 24 hrs by Western blot analysis", "assay_type": "functional, cell-based", "conditions": "dose 5-20 µM, DDE = dose-dependent effect"}, "[6]": {"system": "LS174T", "experiment": "Inhibition of cell invasion in human LS174T cells incubated for 24 hrs by transwell assay", "assay_type": "functional, cell-based", "conditions": "dose 2-8 µM, DDE = dose-dependent effect"}, "[7]": {"system": "LS174T", "experiment": "Induction of apoptosis in human LS174T cells assessed as increase in late apoptotic cells at 20 to 40 uM measured after 48 hrs by AnnexinV-FITC/PI staining based flowcytometry analysis", "assay_type": "functional, cell-based", "conditions": "dose 20-40 µM"}, "[8]": {"system": "Mus musculus", "experiment": "Downregulation of MMP-7 expression in tumor of BALB/c mouse xenografted with human LS174T cells at 10 to 30 mg/kg, ip administered 3 times per week for 21 days by Western blot analysis", "assay_type": "functional, organism-based", "conditions": "dose 10-30 mg/kg, time 21.0 day"}, "[9]": {"system": "LS174T", "experiment": "Induction of cell cycle arrest in human LS174T cells assessed as accumulation of cells at S phase at 20 uM measured after 24 hrs by RNase A/propidium iodide staining based flow cytometric analysis (reference value: 14.5 %)", "assay_type": "functional"}, "[10]": {"system": "LS174T", "experiment": "Induction of cell cycle arrest in human LS174T cells assessed as accumulation of cells at G2/M phase at 10 uM measured after 24 hrs by RNase A/propidium iodide staining based flow cytometric analysis (reference value: 12.2 %)", "assay_type": "functional"}, "[11]": {"experiment": "Inhibition of Wnt/beta-catenin transactivation signalling in HEK293 cells transfected with renilla luciferase and TOPFlash reporter gene incubated for 24 hrs by dual-luciferase assay", "assay_type": "cell-based", "conditions": "Homo sapiens, HEK293, 24 h"}, "[12]": {"system": "LS174T", "experiment": "Induction of cell cycle arrest in human LS174T cells assessed as downregulation of cyclin D1 expression measured after 24 hrs by Western blot analysis", "assay_type": "functional, cell-based", "conditions": "dose 5-20 µM, DDE = dose-dependent effect"}, "[13]": {"system": "LS174T", "experiment": "Antitumor activity against human LS174T cells xenografted in BALB/c nude mouse assessed as reduction in tumor weight at 30 mg/kg, ip administered 3 times per week for 21 days by electronic caliper method", "assay_type": "functional", "design": "scale not given: the % may be the effect or the level left", "conditions": "time 21 day"}, "[14]": {"system": "LS174T", "experiment": "Induction of cell cycle arrest in human LS174T cells assessed as accumulation of cells at G0/G1 phase at 10 uM measured after 24 hrs by RNase A/propidium iodide staining based flow cytometric analysis (reference value: 71.7 %)", "assay_type": "functional"}, "[15]": {"system": "LS174T", "experiment": "Antitumor activity against human LS174T cells xenografted in BALB/c nude mouse assessed as reduction in tumor weight at 10 mg/kg, ip administered 3 times per week for 21 days by electronic caliper method", "assay_type": "functional", "design": "scale not given: the % may be the effect or the level left", "conditions": "time 21 day"}, "[16]": {"system": "LS174T", "experiment": "Induction of cell cycle arrest in human LS174T cells assessed as accumulation of cells at sub-G1 phase at 20 uM measured at 48 hrs by RNase A/propidium iodide staining based flow cytometric analysis (reference value: 0.7 %)", "assay_type": "functional"}, "[17]": {"system": "LS174T", "experiment": "Downregulation of survivin expression in human LS174T cells at 2.5 to 20 uM incubated for 24 hrs by Western blot analysis", "assay_type": "functional, cell-based", "conditions": "dose 2.5-20 µM"}, "[18]": {"system": "LS174T", "experiment": "Induction of apoptosis in human LS174T cells assessed as upregulation of cleaved caspase-9 expression measured after 48 hrs by Western blot analysis", "assay_type": "functional, cell-based", "conditions": "dose 20-40 µM, DDE = dose-dependent effect"}, "[19]": {"system": "LS174T", "experiment": "Induction of cell cycle arrest in human LS174T cells assessed as accumulation of cells at S phase at 5 uM measured after 24 hrs by RNase A/propidium iodide staining based flow cytometric analysis (reference value: 14.5 %)", "assay_type": "functional"}, "[20]": {"system": "LS174T", "experiment": "Downregulation of snail expression in human LS174T cells at up to 8 uM incubated for 24 hrs by Western blot analysis", "assay_type": "functional, cell-based"}, "[21]": {"system": "LS174T", "experiment": "Induction of cell cycle arrest in human LS174T cells assessed as accumulation of cells at G2/M phase at 20 uM measured after 24 hrs by RNase A/propidium iodide staining based flow cytometric analysis (reference value: 12.2 %)", "assay_type": "functional"}, "[22]": {"system": "Mus musculus", "experiment": "Downregulation of snail protein expression in tumor of BALB/c mouse xenografted with human LS174T cells at 10 to 30 mg/kg, ip administered 3 times per week for 21 days by Western blot analysis", "assay_type": "functional, organism-based", "conditions": "dose 10-30 mg/kg, time 21.0 day"}, "[23]": {"system": "LS174T", "experiment": "Induction of cell cycle arrest in human LS174T cells assessed as downregulation of CDK4 expression measured after 24 hrs by Western blot analysis", "assay_type": "functional, cell-based", "conditions": "dose 5-20 µM, DDE = dose-dependent effect"}, "[24]": {"system": "LS174T", "experiment": "Induction of apoptosis in human LS174T cells assessed as increase in early apoptotic cells at 20 to 40 uM measured after 48 hrs by AnnexinV-FITC/PI staining based flowcytometry analysis", "assay_type": "functional, cell-based", "conditions": "dose 20-40 µM"}, "[25]": {"system": "LS174T", "experiment": "Inhibition of cell migration in human LS174T cells assessed as reduction in wound closure incubated for 24 hrs by wound healing assay", "assay_type": "functional, cell-based", "conditions": "dose 2-8 µM, DDE = dose-dependent effect"}, "[26]": {"system": "LS174T", "experiment": "Downregulation of beta-catenin expression in human LS174T cells at 2.5 to 20 uM incubated for 24 hrs by Western blot analysis", "assay_type": "functional, cell-based", "conditions": "dose 2.5-20 µM"}, "[27]": {"system": "LS174T", "experiment": "Induction of cell cycle arrest in human LS174T cells assessed as accumulation of cells at S phase at 10 uM measured after 24 hrs by RNase A/propidium iodide staining based flow cytometric analysis (reference value: 14.5 %)", "assay_type": "functional"}, "[28]": {"system": "LS174T", "experiment": "Induction of cell cycle arrest in human LS174T cells assessed as accumulation of cells at S phase at 20 uM measured at 12 hrs by RNase A/propidium iodide staining based flow cytometric analysis (reference value: 11.4 %)", "assay_type": "functional"}, "[29]": {"system": "Mus musculus", "experiment": "Downregulation of cyclin D1 expression in tumor of BALB/c mouse xenografted with human LS174T cells at 10 to 30 mg/kg, ip administered 3 times per week for 21 days by immunohistochemical based analysis", "assay_type": "functional, organism-based", "conditions": "dose 10-30 mg/kg, time 21.0 day"}, "[30]": {"system": "HCT-116", "experiment": "Antiproliferative activity against human HCT-116 cells harboring beta-catenin mutant assessed as reduction in cell viability measured after 72 hrs by SRB assay", "assay_type": "functional, cell-based", "conditions": "HCT-116, 72 h"}, "[31]": {"system": "Mus musculus", "experiment": "Downregulation of Ki-67 expression in tumor of BALB/c mouse xenografted with human LS174T cells at 10 to 30 mg/kg, ip administered 3 times per week for 21 days by immunohistochemical based analysis", "assay_type": "functional, organism-based", "conditions": "dose 10-30 mg/kg, time 21.0 day"}, "[32]": {"system": "LS174T", "experiment": "Induction of apoptosis in human LS174T cells assessed as total cell death at 30 uM measured after 48 hrs by AnnexinV-FITC/PI staining based flowcytometry analysis relative to control", "assay_type": "functional"}, "[33]": {"system": "LS174T", "experiment": "Induction of cell cycle arrest in human LS174T cells assessed as accumulation of cells at G0/G1 phase at 20 uM measured after 24 hrs by RNase A/propidium iodide staining based flow cytometric analysis (reference value: 71.7 %)", "assay_type": "functional"}}, "note": "The source made the active and inactive calls. The rule behind the calls is not given here."}
{"smiles": "O=c1c2ccccc2nc2n1CCc1c-2[nH]c2ccccc12", "note": "[RUTAECARPINE]", "values": [{"measurement": "Activity", "setting": "[1]", "result": 2.7, "unit": "%"}, {"measurement": "Activity", "setting": "[2]", "result": "Active"}, {"measurement": "Activity", "setting": "[3]", "result": 54.6, "unit": "%"}, {"measurement": "Activity", "setting": "[4]", "result": 85.4, "unit": "%"}, {"measurement": "Activity", "setting": "[5]", "result": "Dde"}, {"measurement": "inhibition", "setting": "[6]", "result": "Dde"}, {"measurement": "Activity", "setting": "[7]", "result": "Active"}, {"measurement": "Activity", "setting": "[8]", "result": "Active"}, {"measurement": "Activity", "setting": "[9]", "result": 4.1, "unit": "%"}, {"measurement": "Activity", "setting": "[10]", "result": 9.6, "unit": "%"}, {"measurement": "IC50", "setting": "[11]", "result": 4.3, "unit": "µM"}, {"measurement": "Activity", "setting": "[12]", "result": "Dde"}, {"measurement": "Activity", "setting": "[13]", "result": 41.5, "unit": "%"}, {"measurement": "Activity", "setting": "[14]", "result": 81.6, "unit": "%"}, {"measurement": "Activity", "setting": "[15]", "result": 68.3, "unit": "%"}, {"measurement": "Activity", "setting": "[16]", "result": 13.9, "unit": "%"}, {"measurement": "Activity", "setting": "[17]", "result": "Active"}, {"measurement": "Activity", "setting": "[18]", "result": "Dde"}, {"measurement": "Activity", "setting": "[19]", "result": 10.7, "unit": "%"}, {"measurement": "Activity", "setting": "[20]", "result": "Active"}, {"measurement": "Activity", "setting": "[21]", "result": 7, "unit": "%"}, {"measurement": "Activity", "setting": "[22]", "result": "Active"}, {"measurement": "Activity", "setting": "[23]", "result": "Dde"}, {"measurement": "Activity", "setting": "[24]", "result": "Active"}, {"measurement": "inhibition", "setting": "[25]", "result": "Dde"}, {"measurement": "Activity", "setting": "[26]", "result": "Active"}, {"measurement": "Activity", "setting": "[27]", "result": 7.2, "unit": "%"}, {"measurement": "Activity", "setting": "[28]", "result": 2.4, "unit": "%"}, {"measurement": "Activity", "setting": "[29]", "result": "Active"}, {"measurement": "IC50", "setting": "[30]", "result": 31.1, "unit": "µM"}, {"measurement": "Activity", "setting": "[31]", "result": "Active"}, {"measurement": "Activity", "setting": "[32]", "result": 65.7, "unit": "%"}, {"measurement": "Activity", "setting": "[33]", "result": 87.3, "unit": "%"}]}
